Read-outs that look alike come from different tables or passages of the source.
Assays:
Zymoseptoria tritici = test: Leaf Blotch of Wheat (SEPTTR) fungicidal activity; format: in vivo; conditions: Low Volume (121.5 g/H)
Method: Technical grades of materials were dissolved in acetone, which were then mixed with nine volumes of H2O containing 110 ppm Triton X-100. The fungicide solutions were applied onto wheat seedlings using an automated booth sprayer to run-off. All sprayed plants were allowed to air dry prior to further handling. All fungicides were evaluated using the aforementioned method for their activity vs. all target diseases, unless stated otherwise. Wheat leaf blotch and brown rust activity were also evaluated using track spray applications, in which case the fungicides were formulated as EC formulations, containing 0.1% Trycol 5941 in the spray solutions. Wheat plants (variety Yuma) were grown from seed in a greenhouse in 50% mineral soil/50% soil-less Metro mix until the first leaf was fully emerged, with 7-10 seedlings per pot. These plants were inoculated with an aqueous spore suspension of Zymoseptoria tritici either prior to or after fungicide treatments. After inoculation the plants were kept in 100% relative humidity (one day in a dark dew chamber followed by two to three days in a lighted dew chamber at 20° C.) to permit spores to germinate and infect the leaf. The plants were then transferred to a greenhouse set at 20° C. for disease to develop. When disease symptoms were fully expressed on the 1st leaves of untreated plants, infection levels were assessed on a scale of 0 to 100 percent disease severity. Percent disease control was calculated using the ratio of disease severity on treated plants relative to untreated plants.

Puccinia triticina = test: Wheat Brown Rust (PUCCRT) fungicidal activity; format: in vivo; conditions: Low Volume (121.5 g/H)
Method: Technical grades of materials were dissolved in acetone, which were then mixed with nine volumes of H2O containing 110 ppm Triton X-100. The fungicide solutions were applied onto wheat seedlings using an automated booth sprayer to run-off. All sprayed plants were allowed to air dry prior to further handling. All fungicides were evaluated using the aforementioned method for their activity vs. all target diseases, unless stated otherwise. Wheat leaf blotch and brown rust activity were also evaluated using track spray applications, in which case the fungicides were formulated as EC formulations, containing 0.1% Trycol 5941 in the spray solutions. Wheat plants (variety Yuma) were grown from seed in a greenhouse in 50% mineral soil/50% soil-less Metro mix until the first leaf was fully emerged, with 7-10 seedlings per pot. These plants were inoculated with an aqueous spore suspension of Puccinia triticina either prior to or after fungicide treatments. After inoculation the plants were kept in a dark dew room at 22° C. with 100% relative humidity overnight to permit spores to germinate and infect the leaf. The plants were then transferred to a greenhouse set at 24° C. for disease to develop. Fungicide formulation, application and disease assessment followed the procedures as described in the Example A.

[1] = 24 h, 1 Day Protectant, read-out: SEPTTR 1DP disease control
[2] = 24 h, 1 Day Protectant, read-out: PUCCRT 1DP disease control
[3] = 72 h, 3 Day Curative, read-out: PUCCRT 3DC disease control
[4] = 72 h, 3 Day Curative, read-out: SEPTTR 3DC disease control

SMILES	pest or weed control at 121.5 g/ha (Zymoseptoria tritici; [1])	pest or weed control at 121.5 g/ha (Puccinia triticina; [2])	pest or weed control at 121.5 g/ha (Puccinia triticina; [3])	pest or weed control at 121.5 g/ha (Zymoseptoria tritici; [4])
COc1ccnc(C(=O)N[C@H]2CCCC[C@H](CC3CCCC3)[C@@H](OC(=O)C(C)C)[C@H](C)OC2=O)c1OCOC(C)=O [Compound 54]	> 80%	> 80%	< 80%	–
COc1ccc(CO[C@H]2[C@H](C)OC(=O)[C@@H](NC(=O)c3nccc(OC)c3OCOC(C)=O)CCOC[C@@H]2OCc2ccc(OC)cc2)cc1 [Compound 32]	–	–	< 80%	< 80%
COc1ccnc(C(=O)N[C@H]2CCCC[C@H](CC3CCCC3)[C@@H](Oc3ccccc3)[C@H](C)OC2=O)c1OC(C)=O [Compound 52]	> 80%	> 80%	< 80%	–
COc1ccnc(C(=O)N[C@H]2CCCC[C@H](Cc3ccccc3)[C@@H](Oc3ccccc3)[C@H](C)OC2=O)c1OC(C)=O [Compound 64]	> 80%	> 80%	< 80%	> 80%
COc1ccnc(C(=O)N[C@H]2CCCC[C@H](Oc3ccccc3)[C@@H](Oc3ccccc3)[C@H](C)OC2=O)c1OCOC(C)=O [Compound 19]	> 80%	> 80%	> 80%	> 80%
COc1ccnc(C(=O)N[C@H]2CCOC[C@H](OCC(C)C)[C@@H](Oc3ccccc3)[C@H](C)OC2=O)c1OCOC(C)=O [Compound 45]	> 80%	> 80%	> 80%	> 80%
COc1ccnc(C(=O)N[C@H]2CCCC[C@H](CC3CCCC3)[C@@H](Oc3ccccc3)[C@H](C)OC2=O)c1OCOC(C)=O [Compound 50]	> 80%	> 80%	> 80%	< 80%
CCC[C@H]1CCCC[C@H](NC(=O)c2nccc(OC)c2OCOC(C)=O)C(=O)O[C@@H](C)[C@@H]1OCC(C)C [Cmpd 30, ((2-(((3S,8S,9R,10S)-9-isobutoxy-10-methyl-2-oxo-8-propyloxecan-3-yl)carbamoyl)-4-methoxypyridin-3-yl)oxy)methyl acetate]	< 80%	> 80%	< 80%	< 80%
CCCCO[C@H]1CCOC[C@H](NC(=O)c2nccc(OC)c2OCOC(C)=O)C(=O)O[C@@H](C)[C@@H]1OCc1ccccc1 [Compound 2]	< 80%	> 80%	> 80%	–
CCOCC(=O)OCOc1c(OC)ccnc1C(=O)N[C@H]1COCC[C@H](Cc2ccc(F)cc2)[C@@H](OCC2CC2)[C@H](C)OC1=O [Compound 78]	> 80%	> 80%	> 80%	< 80%
CCCCO[C@H]1CCOC[C@H](NC(=O)c2nccc(OC)c2OCOC(C)=O)C(=O)O[C@@H](C)[C@@H]1OC(=O)c1ccccc1 [Compound 4]	< 80%	> 80%	> 80%	–
COc1ccnc(C(=O)N[C@H]2CCOC[C@H](Oc3ccccc3)[C@@H](Oc3ccccc3)[C@H](C)OC2=O)c1OCOC(C)=O [Compound 37]	> 80%	> 80%	> 80%	> 80%
COc1ccnc(C(=O)N[C@H]2COCC[C@H](Cc3ccc(F)cc3)[C@@H](Oc3ccccc3)[C@H](C)OC2=O)c1OCOC(=O)C(C)C [Compound 73]	> 80%	> 80%	> 80%	> 80%
COc1ccnc(C(=O)N[C@H]2CCOC[C@H](Oc3ccccc3)[C@@H](OCC(C)C)[C@H](C)OC2=O)c1OCOC(C)=O [Compound 46]	> 80%	> 80%	< 80%	< 80%
CC[C@H]1CCOC[C@H](NC(=O)c2nccc(OC)c2OCOC(C)=O)C(=O)O[C@@H](C)[C@@H]1Oc1ccccc1 [Compound 69]	> 80%	> 80%	> 80%	> 80%
COc1ccnc(C(=O)N[C@H]2CCCC[C@H](Cc3ccccc3)[C@@H](Oc3ccccc3)[C@H](C)OC2=O)c1OCOC(C)=O [Compound 62]	> 80%	> 80%	< 80%	> 80%

— US20180002320A1, “USE OF MACROCYCLIC PICOLINAMIDES AS FUNGICIDES” (DOW AGROSCIENCES LLC, priority 2014, published 2018)
